# Laboratory results: US9012403B2, “Peptides as active agents to stabilize biological barriers” (XiberScience GmbH, priority 2010, dated 2015)
# Marks after values point to notes of the source that are not given here.
# Key:
# [1] = tested on: GEF; test: GEF-activity in membrane fractions of Caco-2 cells (RhoGEF Exchange Assay); type: cell-based; settings: for GEF-activity, relative values compared to unstimulated control (Mean): CaCo-2, PMA 1 μg/ml, with or without peptide 50 μg/ml
# Protocol: (§1) To measure the GEF-inhibitory effect, the following cell lines were used: Caco-2 (epithelial cells from adeno-carcinoma), ECV304 (epithelial cells from bladder carcinoma) and HpMec (endothelial cells, immortalized pulmonary micro-vascular cells). All cells were grown at standard conditions (37° C., 5% CO2 and 95% relative humidity (rH)). Culture Medium used for Caco-2: DMEM+1 mM sodium pyruvate+20% FCS+1% Penicillin Streptomycin; for ECV 304: RPMI 1640+10% FCS+1% Penicillin Streptomycin; and for HpMec: IMDM+25 mM Hepes+10% Human Serum+1% Penicillin Streptomycin+1% L-Glutamine+ECGS/Heparin 2 ml. 4 h before the experiment, cells were starved by serum withdrawal. To induce GEF-activity, cells were stimulated with thrombin, lipopolysaccharide (LPS) or PMA for the indicated time in presence or absence of 50 μg/ml XIB1-a or XIB1-b. After stimulation, membrane fractions were prepared by using the commercial available “Compartemental Protein Extraction Kit” from Biochain institutes. Membrane fractions were prepared according to the manufacturer instructions. GEF-activity in membrane lysates was determined by using “RhoGEF Exchange Assay Biochem Kit” from Cytoskeleton Inc. according to manufacturer instructions. GEF-activity was measured as fluorescence at using the Fluoroskan Ascent FL 2.6 from Thermo Electron Corporation. The excitation Filter wavelength was set at 355 nm and the emission filter wavelength at 460 nm.
# [2] = tested on: Phosphorylated Myosin Light Chain (MLC) and actin stress fibers; test: MLC phosphorylation and actin stress fiber formation in Caco-2 cells (microscopy score); type: cell-based; settings: CaCo-2, PMA 1 μg/ml, with or without peptide 50 μg/ml
# Protocol: (§2) To measure MLC phosphorylation and actin stress fiber formation, the following cell lines were used: Caco-2, ECV304 and HpMec. All cells were grown at standard conditions (37° C., 5% CO2 and 95% rH). Culture Medium used: for Caco-2: DMEM+1 mM sodium pyruvate+20% FCS+1% Penicillin Streptomycin; for ECV 304: RPMI 1640+10% FCS+1% Penicillin Streptomycin; and for HpMec: IMDM+25 mM Hepes+10% Human Serum+1% Penicillin Streptomycin+1% L-Glutamine+ECGS/Heparin 2 ml. 4 h before the experiment, cells were starved by serum withdrawal. To induce GEF-activity, cells were stimulated with thrombin, LPS or PMA for the indicated time in presence or absence of 50 μg/ml XIB1-a or XIB1-b. After stimulation, cells were fixed using 4% PFA. Phospho MLC was detected by using the “rabbit anti phosphor-myosin light chain antibody” from Chemicon in a concentration of 3 μl/ml in PBS (Gibco) supplemented with 0.1% Triton X-100. As detection antibody, the Alexa 448 tagged “anti Rabbit IgG Antibody” from Invitrogen was used in a concentration of 0.5 μl/ml in PBS (Gibco) supplemented with 0.1% Triton X-100. Aktin was detected using TRITC-labeled Phalloidin in a concentration of 0.5 μl/ml in PBS (Gibco) supplemented with 0.1% Triton. Stained cells were analyzed by using a Zeiss Laser Scan microscope. Evaluation of the cyto-skeletal activation was performed by 2 independent observers that were blinded to the conditions. Evaluation criteria were set as follows:
# (§3) Actin: parallel actin bundles absent=0; distinct bundle formation=1; prominent parallel bundles=2; Phospho-MLC: present at cell poles=0; slight co-localization with actin bundles=1; prominent co-localization with actin bundles=2
# [3] = tested on: GTP-bound RhoA; test: GTP-associated active RhoA in Caco-2 membrane fraction (western blot); type: cell-based; settings: for GTP-bound RhoA, relative values compared to unstimulated control (Mean): CaCo-2, PMA 1 μg/ml, with or without peptide 50 μg/ml; for increase of RhoA-activity: CaCo-2 cells, PMA-stimulus
# Protocol: (§4) To measure the GTP-associated active RhoA, the following cell lines were used: Caco-2, ECV304 and HpMec. All cells were grown at standard conditions (37° C., 5% CO2 and 95% rH). 4 h before the experiment, cells were starved by serum withdrawal. To induce GEF-activity, cells were stimulated with thrombin, LPS or PMA for the indicated time in presence or absence of 50 μg/ml XIB1-a or XIB1-b. After stimulation, membrane fractions were prepared by using the commercial available “Compartemental Protein Extraction Kit” from Biochain Institutes. Membrane fractions were prepared according to the manufacturer instructions. The membrane fraction was separated on 15% polyacrylamide gel according to standard procedures of gel electrophoresis. The gels were afterwards blotted on a nitrocellulose membrane according to standard procedures of western blotting. GTP-bound RhoA was detected using RhoA-GTP monoclonal antibody from NewEast Inc. in a dilution of 1:5000. Protein bands were analyzed with the Dolphin-1D Gel analysis system (Wealtec).
# [4] = tested on: Phosphorylated Myosin Light Chain (MLC) and actin stress fibers; test: MLC phosphorylation and actin stress fiber formation in ECV304 cells (microscopy score); type: cell-based; settings: ECV 304, Thrombin 1 U/ml, with or without peptide 50 μg/ml
# Protocol: as §2, §3
# [5] = tested on: Phosphorylated Myosin Light Chain (MLC) and actin stress fibers; test: MLC phosphorylation and actin stress fiber formation in HpMec cells (microscopy score); type: cell-based; settings: Thrombin 1 U/ml, with or without peptide 50 μg/ml
# Protocol: as §2, §3
# [6] = tested on: GTP-bound RhoA; test: GTP-associated active RhoA in HpMec membrane fraction (western blot); type: cell-based; settings: for increase in RhoA-activity: HepMec cells, thrombin; for GTP-bound RhoA, relative values compared to unstimulated control (Mean): HpMec, Thrombin 1 U/ml, with or without peptide 50 μg/ml
# Protocol: as §4
# [7] = tested on: GEF; test: GEF-activity in membrane fractions of ECV304 cells (RhoGEF Exchange Assay); type: cell-based; settings: ECV 304, Thrombin 1 U/ml, with or without peptide 50 μg/ml
# Protocol: as §1
# [8] = tested on: GTP-bound RhoA; test: GTP-associated active RhoA in ECV304 membrane fraction (western blot); type: cell-based; settings: ECV 304, Thrombin 1 U/ml, with or without peptide 50 μg/ml
# Protocol: as §4
# [9] = tested on: GEF; test: GEF-activity in membrane fractions of HpMec cells (RhoGEF Exchange Assay); type: cell-based; settings: for increase in GEF-activity: HepMec cells, thrombin; for GEF-activity, relative values compared to unstimulated control (Mean): HpMec, Thrombin 1 U/ml, with or without peptide 50 μg/ml
# Protocol: as §1
# [10] = tested on: Ventilator-Induced Lung Injury (VILI); test: Ventilator-induced lung injury (VILI) after LPS pre-challenge; type: in vivo; settings: mice, LPS + high tidal volume ventilation (LPS-HTV); i.v. 4 mg/kg loading, then 1 mg/kg/h
# Protocol: Experiments were performed with healthy C57BL/6 (aged 8-10 weeks, with weights ranging from 19-25 g). All interventions were performed according to the guide lines of AAALAC. All experiment were approved by the Ethic committee of the University of Amsterdam.
# Mice were challenged with LPS (dosage: 50 μg per mouse) (or saline), via intranasal injection 2 h before initiation of mechanical ventilation, to induce lung injury.
# XIB1-1b (or random peptide) was administered i.v. 10 min before start of mechanical ventilation (dosage: 4 mg/kg loading dose, followed administration i.v. injections 1 mg/kg/h.
# A Y-tube connector with 1.0 mm outer diameter and 0.6 mm inner diameter was surgically inserted into the trachea under general anesthesia. Mice were placed in a supine position and connected to a ventilator. Mice were pressure-controlled ventilated with either an inspiratory pressure of 10 cm H2O (resulting in VT˜7.5 mL/kg; low VT, LVT) or an inspiratory pressure of 18 cm H2O (resulting in VT˜15 mL/kg; high VT, HVT). Positive end-expiratory pressure (PEEP) is set at 2 cm H2O with both MV-strategies. The fraction of inspired oxygen was kept at 0.5 throughout the experiment. The inspiration to expiration ratio was kept at 1:1 throughout the experiment.
# BALF was obtained by instilling 3 times 0.5 mL aliquots of saline by a 22-gauge Abbocath-T catheter (Abbott, Sligo, Ireland) into the trachea. Approximately, 1.0 mL of BALF was retrieved per mouse and cell counts were determined using a hemacytometer (Beckman Coulter, Fullerton, Calif.). Subsequently, differential counts were done on cytospin preparations stained with a modified Giemsa stain, Diff-Quick (Dade Behring AG, Düdingen, Switzerland). Supernatant was stored at −80° C.
# Total protein levels in BALF are determined using a Bradford Protein Assay Kit (OZ Biosciences, Marseille, France) according to manufacturers' instructions with bovine serum albumin as standard. Mouse IgM was determined by ELISA by using anti-Mouse IgM sensitized 96-strip micro-well plates according to manufacturers' instructions (IMMUNO-TEK kit from ZeptoMetrix).
# [11] = tested on: LPS induced lung injury; test: LPS induced lung injury, bronchoalveolar lavage; type: in vivo; settings: mice, 6 h after LPS, n = 20
# Protocol: Male C57Bl/6 Mice (Charles River, Germany) were kept at the animal facility of the Medical University of Vienna, feed with standard diet and water was provided ad libitum. All interventions were performed according to the guide lines of AAALAC (Association for Assessment and Accreditation of Laboratory Animal Care). All experiment were approved by the Ethic committee of the Medical University of Vienna. Mice were anesthetized with isoflouran and treated with 100 ng of LPS (E. coli O55:B5, Sigma Aldrich) intranasally. XIB1-a or XIB1-b was applied either intra-peritoneally (2×2 mg/kg) or via inhalation (2×4 mg/kg), first application was performed concomitantly with LPS administration, the second application was performed 1 h after the LPS inhalation.
# The trachea was exposed through a midline incision and canulated with a sterile 20-gauge catheter (BD Venflon™, Becton Dickinson Infusion Therapy, Helsingborg, Sweden). Bilateral broncho-alveolar lavage fluid (BALF) was gained by instilling two 0.5 ml aliquots of sterile saline. Approximately 0.9-1 ml BALF was retrieved per mouse. Total cell numbers were counted from each sample using a hemo-cytometer (Türck chamber), BALF differential cell counts were done on cytospin preparations stained with Giemsa. For protein measurements, BALF was diluted 1:2 in buffer containing 300 mM NaCl, 30 mM Tris, 2 mM MgCl2, 2 mM CaCl2, and Pepstatin A, Leupeptin and Aprotinin (all 20 ng/ml; pH 7.4). Protein levels in BALF were measured using the BCA protein kit according to the manufacturer's instructions (Pierce, Rockford, Ill.).
# In addition, the same set-up as described above was used for comparing the impact of XIB1-b compared to Bβ15-42 (PLoS ONE (2009), 4(4): e5391), a peptide derived from fibrin having the sequence […] (SEQ ID NO: 41). Bβ15-42 was added in the same manner as XIB1-b. Again, protein content and cell count of BALF was measured.
compound,measurement,setting,value
"CCCCCCCCCCCCCC(=O)O[C@@H]1[C@@H](C)[C@@]2(O)[C@@H](C=C(CO)C[C@]3(O)C(=O)C(C)=C[C@@H]23)[C@@H]2C(C)(C)[C@]12OC(C)=O [PMA, reference compound]","GEF-activity, relative values compared to unstimulated control (Mean)",[1]; 1 min,2.5
same,"GEF-activity, relative values compared to unstimulated control (Mean)",[1]; 5 min,1.8
same,increase of GEF-activity,"[1]; CaCo-2 cells, 1 min PMA-stimulus",2.5 fold
same,"MLC phosphorylation and actin stress fiber formation, evaluation score (Mean)",[2]; 1 min,3
same,"MLC phosphorylation and actin stress fiber formation, evaluation score (Mean)",[2]; 5 min,3
same,"GTP-bound RhoA, relative values compared to unstimulated control (Mean)",[3]; 1 min,2.3
same,"GTP-bound RhoA, relative values compared to unstimulated control (Mean)",[3]; 5 min,2.0
same,increase of RhoA-activity,[3]; after 5 mm of stimulation,2 fold
same,increase of RhoA-activity,[3]; after 1 min,2.3 fold
Thrombin [reference compound],"MLC phosphorylation and actin stress fiber formation, evaluation score (Mean)",[4]; 1 min,4
same,"MLC phosphorylation and actin stress fiber formation, evaluation score (Mean)",[4]; 5 min,4
same,"MLC phosphorylation and actin stress fiber formation, evaluation score (Mean)",[5]; 1 min,4
same,"MLC phosphorylation and actin stress fiber formation, evaluation score (Mean)",[5]; 5 min,4
same,increase in RhoA-activity,[6]; after 1 min,3.8 fold
same,increase in RhoA-activity,[6]; after 5 min,3.2 fold
same,"GTP-bound RhoA, relative values compared to unstimulated control (Mean)",[6]; 1 min,3.8
same,"GTP-bound RhoA, relative values compared to unstimulated control (Mean)",[6]; 5 min,3.2
same,"GEF-activity, relative values compared to unstimulated control (Mean)",[7]; 1 min,5
same,"GEF-activity, relative values compared to unstimulated control (Mean)",[7]; 5 min,3.4
same,"GTP-bound RhoA, relative values compared to unstimulated control (Mean)",[8]; 1 min,4.3
same,"GTP-bound RhoA, relative values compared to unstimulated control (Mean)",[8]; 5 min,3.2
same,increase in GEF-activity,[9]; after 1 min,3.5 fold
same,increase in GEF-activity,[9]; after 5 min,3 fold
same,"GEF-activity, relative values compared to unstimulated control (Mean)",[9]; 1 min,3.5
same,"GEF-activity, relative values compared to unstimulated control (Mean)",[9]; 5 min,3
"GGGGGSRRIPL (/note=“Description of artificial sequence variable insert”) [scrambled peptide, scrambled peptide control in the VILI experiment, reference compound]",IgM content in the BALF,[10],No improvement
same,neutrophil count in the BALF,[10],No improvement
same,total cell count in the BALF,[10],No improvement
same,total protein content in the BALF,[10],No improvement
"GHRPLDKKKREEAPSLRPAPPPISGGGYR (/note=“Description of artificial sequence peptide Bbeta 15-42”) [Bβ15-42, a peptide derived from fibrin]",albumine content of BALFs (mean +/ SD),"[11]; comparison with Bβ15-42 (Table 6), intraperitoneal application",160 ± 20 µg/mL
same,counts of neutrophils in the BALF (mean +/ SD),"[11]; comparison with Bβ15-42 (Table 6), intratracheal plus intraperitoneal application",35 +/− 10 neutrophils/ml (× 10^3)
same,albumine content of BALFs (mean +/ SD),"[11]; comparison with Bβ15-42 (Table 6, last section), intraperitoneal application as printed",152 ± 35 µg/mL
